# Experimental data from patent US5250542A, “Peripherally selective piperidine carboxylate opioid antagonists” (Eli Lilly and Company, priority 1992, dated 1993).
# Where a name gives a salt, the structure may show the parent alone. Read-outs that look alike come from different tables or passages of the source.
# Experiments:
# [1] = molecular target: T1, opioid receptor (Mus musculus, UniProt P42866); experiment: mouse writhing analgesis test: block of morphine-induced analgesia; format: in vivo, CF-1 male mice; design: unit not given here; conditions: dose of antagonist that reduced the inhibition of writhing produced by 1.25 mg/kg morphine sulfate to 50%, subcutaneous, 20 min before acetic acid
# T1 construct: Five CF-1 male mice (Charles River, Portage, Mich.); from tissue; host or cells: living CF-1 male mice (in vivo test; endogenous receptor)
# Method: In order to determine in vivo opioid receptor antagonism, the mouse writhing analgesis test was used. Test compounds were measured for their ability to block morphine-induced analgesia.
# Five CF-1 male mice (Charles River, Portage, Mich.), weighing approximately 20 g after being fasted overnight, were observed simultaneously for the writhing response. The writhing response was defined as a contraction of the abdominal musculature, followed by the extension of the hind limbs, and was induced by the intraperitoneal adminstration of 0.6% acetic acid in a volumne of 1 ml/100 g body weight. The observation period was 10 min. in duration, beginning 5 min. after injection of acetic acid. The percent inhibition of writhing was calculated from the average number of writhes in the control (non-drug) group. Each data point is the mean (±standarderror) for five mice. The ED50 was defined as the dose of agonist that inhibited mean writhing by 50%. […] Each mouse was only used once. All drugs were administered subcutaneously (1 ml/100 g bwt) 20 min. before the injection of acetic acid.
# [2] = molecular target: T2, peripheral opioid receptors (Mus musculus, UniProt P42866); experiment: precipitated diarrhea in morphine-maintained mice (peripheral opioid activity) and comparison with the writhing test; format: in vivo; design: ED50 (diarrhea): unit not given beside the values; conditions: for Ratio (AD50 mouse writhing test / ED50 mouse diarrhea test): higher ratio = greater relative antagonism of peripheral opioid receptors; for ED50: mouse, 0.5 h; for ED50 / ED50 (diarrhea): morphine-maintained mice, antagonist subcutaneous or oral, 30 min observation; for ED50 (diarrhea): 30 min
# T2 construct: Mice maintained (6 mice/cage) on 0.01M saccharin water with 1 g/1 morphine sulfate; from tissue; host or cells: living morphine-maintained mice (in vivo test; endogenous receptor)
# Method: Determinations of peripheral opioid activity were conducted. Mice maintained (6 mice/cage) on 0.01M saccharin water with 1 g/1 morphine sulfate for a minimum of 10 days with mice averaging 3.0^+ g water/mouse/day for at least three days are used as subjects. The morphine water was removed 45 min. prior to injection with the proposed opioid antagonist. Initial testing consisted of 5 mice/dose of compound. The antagonist was given by the subcutaneous or oral, route of administration,and the mice were placed in 11-14"×4 7/12 I.D. clear plastic cylinders with white paper towels used for a floor.
# The mice were then monitored visually for 30 minutes post-injection for the presence of jumping and of diarrhea. Jumping was scored as positive if at least one jump occurred in 30 min. Diarrhea was scored as positive when feces were moist enough to stain the white paper at the base of the cylinder. After 30 minutes of testing, the mice were placed back in original cages, put back on morphine water, and not tested again for 48 hrs. Lower doses of the antagonist compounds were tested until threshold doses for diarrhea were determined. Diarrhea is a peripherally mediated sign of precipitated opiate abstinence.
# The extent of the effect on peripheral activity compared to central activity of the present compounds can-be determined by comparing the AD50 for the mouse writhing test with the ED50 for the mouse diarrhea test. The higher the ratio, the greater the relative antagonism of the peripheral opioid receptors by a particular compound.
# [3] = molecular target: T3, mu receptor (Rattus norvegicus, UniProt P33535); experiment: opioid receptor binding assay, [3H] NAL (tritiated naloxone), mu receptor; design: species or system rat (Male Sprague Dawley), brain minus cerebellum
# T3 construct: rat whole brain minus cerebellum for mu was homogenized; from tissue; host or cells: brain of male Sprague Dawley rats, whole brain minus cerebellum, homogenate fraction
# Method: This assay was conducted by the following procedure.
# Male Sprague Dawley rats for mu site experiments were sacrificed via decapitation and the brains were removed. The brain tissue, rat whole brain minus cerebellum for mu was homogenized in a Teflon and glass tissue homogenizer. A supernatant I, pellet IV, fraction was frozen in a nitrogen freezer at 1.33 g/ml concentration and stored for not longer than five weeks prior to use. Pellets were rehydrated with physiological buffer prior to use.
# The reaction was initiated by the addition of the resuspended tissue which had been preincubated at 37° C. for 20 minutes. The reaction mixture was incubated in a 37° C. water bath for 20 minutes. The reaction was terminated by rapid filtration, (Brandel Cell Harvestor), through Whatman GF/B glass filters that had been presoaked in Krebs-Hepes buffer pH 7.4. The filters were then washed 2x with 5 ml of ice cold Krebs-Hepes buffer pH 7.4. Washed filters were placed in scintillation vials and 10 ml RedySolv, (Brandel), was added and samples counted in a Searle D-300 beta counter. Means and standard error statistics were calculated for triplicate experimental determinations in certain cases. The incubation time for the reaction mixture was 20 minutes at 37° C.
# Ki values were calculated using a minitab statistical program according to the following formula: [formula] wherein IC50 is the concentration at which 50% of the ^3 H ligand is displaced by the test compounds and KD is the dissociation constant for the ^3 H ligand at the receptor site. KD can be determined as described by Bennett, "Methods in Binding Studies", Neurotransmitter Receptor Binding, Yamamura, et al., ed., p. 57-90, Raven Press, N.Y. (1978) incorporated herein by reference.
# In the Table, column 1 sets forth the Example Number of the compound evaluated, column 2 the Ki value in nanomolar (nM) at the mu receptor and columns 3 and 4 the percent displacement by the test compound at the indicated concentration, i.e., 10 nm or 100 nm.
# [4] = 20 min, read-out: % displacement at 10 nM
# [5] = 20 min, read-out: % displacement at 100 nM
# [6] = 20 min, read-out: % displacement at 10 nM, 10 nM test compound, [3H] naloxone 0.5 nM
# [7] = 20 min, read-out: % displacement at 100 nM, 100 nM test compound, [3H] naloxone 0.5 nM
# [8] = 20 min, 10 nM test compound, [3H] naloxone 0.5 nM, read-out: % displacement at 10 nM
# [9] = [3H] naloxone 0.5 nM, pH 7.4, 37° C., 20 min
# T3 sequence (P33535 whole entry): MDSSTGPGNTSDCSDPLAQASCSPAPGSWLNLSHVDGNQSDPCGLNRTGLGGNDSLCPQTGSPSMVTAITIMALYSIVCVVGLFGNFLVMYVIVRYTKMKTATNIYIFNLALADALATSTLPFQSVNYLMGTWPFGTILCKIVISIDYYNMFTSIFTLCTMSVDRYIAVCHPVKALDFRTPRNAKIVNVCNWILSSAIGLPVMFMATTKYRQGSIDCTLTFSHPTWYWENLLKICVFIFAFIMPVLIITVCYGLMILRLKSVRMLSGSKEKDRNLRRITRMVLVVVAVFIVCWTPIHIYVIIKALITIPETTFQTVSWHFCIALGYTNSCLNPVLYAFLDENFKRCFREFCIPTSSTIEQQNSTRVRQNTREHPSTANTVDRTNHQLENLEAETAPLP
# T2 sequence (P42866 whole entry): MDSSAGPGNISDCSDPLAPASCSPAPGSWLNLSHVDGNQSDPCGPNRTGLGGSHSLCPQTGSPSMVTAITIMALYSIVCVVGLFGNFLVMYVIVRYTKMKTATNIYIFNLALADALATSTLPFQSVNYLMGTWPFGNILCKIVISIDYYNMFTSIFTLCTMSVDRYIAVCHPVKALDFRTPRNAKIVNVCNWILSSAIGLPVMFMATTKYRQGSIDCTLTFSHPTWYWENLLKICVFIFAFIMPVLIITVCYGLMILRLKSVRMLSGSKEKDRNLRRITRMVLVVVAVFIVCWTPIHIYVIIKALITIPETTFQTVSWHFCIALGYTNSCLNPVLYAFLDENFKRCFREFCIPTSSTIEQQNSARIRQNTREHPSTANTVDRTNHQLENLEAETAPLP
# T1 sequence (P42866 whole entry): as above
SMILES,AD50 [1],Ratio (AD50 mouse writhing test / ED50 mouse diarrhea test) [2],ED50 [2] [mg/kg],Ki [3] [nM],"inhibition at 0.01 µM [3, 6] [%]","inhibition at 0.1 µM [3, 7] [%]",other results
"C[C@H]1CN(CC(Cc2ccccc2)C(=O)NCC(=O)O)CC[C@@]1(C)c1cccc(O)c1 (single isomer, unassigned; (+)) [Example 97E, monohydrate]",8.9,127,0.07,,,,"inhibition at 0.01 µM [3, 4]: 80%; inhibition at 0.1 µM [3, 5]: 90%"
"C[C@H]1CN(CC(CC2CCCCC2)C(=O)O)CC[C@@]1(C)c1cccc(O)c1 (relative stereo) [Example 5B, 3-[3,4-dimethyl-4-(3-hydroxyphenyl)-1-piperidinyl]-2-(cyclohexylmethyl)-propanoic acid monohydrate]",1.6,7,0.24,1.11,93,99,
"C[C@H]1CN(CCC(C(=O)NCCCC(=O)O)C2CCCCC2)CC[C@@]1(C)c1cccc(O)c1 (relative stereo) [Example 28, 4-[[2-cyclohexyl-4-[4-(3-hydroxyphenyl)-3,4-dimethyl-1-piperidinyl]-1-oxobutyl]amino]-butanoic acid monohydrate]",> 40,> 4000,0.01,3.09,86,95,
"CC(C)NC(=O)CNC(=O)C(Cc1ccccc1)CN1CC[C@@](C)(c2cccc(O)c2)[C@@H](C)C1 (some centres unmarked) [Example 48, N-(1-methylethyl)-2-[[3-[4-(3-hydroxyphenyl)-3,4-dimethyl-1-piperidinyl]-2-(phenylmethyl)-1-oxopropyl]amino]acetamide hydrochloride monohydrate]",> 40,> 400,0.1,1.82,96,100,
COC1CCC(OC(=O)CNC(=O)C(Cc2ccccc2)CN2CC[C@@](C)(c3cccc(O)c3)[C@@H](C)C2)CC1 (relative stereo) [Example 92],7.7,1540,0.005,,,,"inhibition at 0.01 µM [3, 8]: 85%; inhibition at 0.1 µM [3, 5]: 97%"
"C[C@H]1CN(CCC(C(=O)NCCC(=O)O)C2CCCCC2)CC[C@@]1(C)c1cccc(O)c1 (relative stereo) [Example 26, 3-[4-[3,4-dimethyl-4-(-3-hydroxyphenyl)-1-piperidinyl]-2-cyclohexyl-1-oxobutylamino]-propanoic acid monohydrate]",7.5,250,0.03,1.17,76,91,
"CNC(=O)CCCNC(=O)C(Cc1ccccc1)CN1CC[C@@](C)(c2cccc(O)c2)[C@@H](C)C1 (some centres unmarked) [Example 62, N-(methyl)-4-[[3-]4-(3-hydroxyphenyl)-3,4-dimethyl-1-piperidinyl]-2-(phenylmethyl)-1-oxopropyl]amino]butanamide monohydrochloride monohydrate]",18.3,122,0.15,1.18,89,,"inhibition at 0.1 µM [3, 5]: 98%"
"CC(C)COC(=O)CNC(=O)C(Cc1ccccc1)CN1CC[C@@](C)(c2cccc(O)c2)[C@@H](C)C1 (single isomer, unassigned) [Example 97D]",,,,,,,"AD50 ([1]; listed as 97D**, 1.25 mg/kg): 32; AD50 ([1]; listed as 97D*, 1.25 mg/kg): 12.7; Ratio (AD50 mouse writhing test / ED50 mouse diarrhea test) ([2]; listed as 97D*): 317; Ratio (AD50 mouse writhing test / ED50 mouse diarrhea test) ([2]; listed as 97D**): 53; ED50 (diarrhea) ([2]; listed as 97D**): 0.6; ED50 (diarrhea) ([2]; listed as 97D*): 0.04"
"CNC(=O)CNC(=O)C(CCN1CC[C@@](C)(c2cccc(O)c2)[C@@H](C)C1)c1ccccc1 (relative stereo) [Example 13, N-(methyl)-2-[[4-[4-(3-hydroxyphenyl)-3,4-dimethyl-1-piperidinyl]-2-phenyl-1-oxobutyl]amino]acetamide monohydrochloride]",,> 125,0.32,,94,95,"Ki [3, 9]: 0.43 nM"
"CCOC(=O)CCCNC(=O)C(Cc1ccccc1)CN1CC[C@@](C)(c2cccc(O)c2)[C@@H](C)C1 (some centres unmarked) [Example 61, 4-[[3-[4-(3-hydroxyphenyl)-3,4-dimethyl-1-piperidinyl]-1-oxo-2-(phenylmethyl)propyl]-amino]butanoic acid ethyl ester monohydrochloride monohydrate]",,66,0.05,,98,99,"Ki [3, 9]: 1.91 nM"
"C[C@H]1CN(CC(Cc2ccccc2)C(=O)NCC(=O)OC2CCCCC2)CC[C@@]1(C)c1cccc(O)c1 (some centres unmarked) [Example 52, 2-[[2-(phenylmethyl)-1-oxo-3-[4-(3-hydroxyphenyl)-3,4-dimethyl-1-piperidinyl]propyl]amino]-ethanoic acid cyclohexyl ester monohydrochloride]",,40,0.2,,,,"inhibition at 0.01 µM [3, 8]: 53%; inhibition at 0.1 µM ([3]; 20 min, 100 nM test compound, [3H] naloxone 0.5 nM, read-out: % displacement at 100 nM): 92%"
"C[C@H]1CN(CCC(C(=O)NCC(N)=O)c2ccccc2)CC[C@@]1(C)c1cccc(O)c1 (relative stereo) [Example 14, trans-N-(2-amino-2-oxoethyl)-4-[3,4-dimethyl-4-(3-hydroxyphenyl)-1-piperidinyl]-2-phenylbutanamide monohydrochloride monohydrate]",,> 43,0.92,6.42,,93,"inhibition at 0.01 µM [3, 4]: 87%"
